Results: US11230688B2, “In vitro gastrointestinal model comprising lamina propria-derived cells” (EMULATE, Inc., priority 2016, dated 2022)
Read-outs that look alike come from different tables or passages of the source. One block for each compound: values may come before it.

Columns and labels:
[1] = system: microfluidic co-cultures of Caco-2 epithelial cells, HUVECs and LPDCs; test: Gut-On-Chip cytokine and chemokine production in co-cultures with lamina propria-derived cells; format: cell-based, human
Experimental: An exemplary bacteria antigen used was PAM2CSK4. […] PAM2CSK4 refers to a synthetic diacylated lipopeptide.
In order to determine contributory factors to the trends in permeability changes observed by combinations of prednisone treatments as in Example 5, cytokine and chemokine production were measured from media samples obtained from the microfluidic cultures as described in EXAMPLE 5. After an incubation time, media samples were extracted from the microfluidic device then used for determining amounts cytokine and chemokine produced, such as IL-6 and IL-9 in FIG. 18A-B; IL-8 and G-CSF in FIG. 19A-B; GM-CSF and MCP-1 in FIG. 20A-B; MIP1b and PDGF-AB/BB in FIG. 21A-B; and RANTES in FIG. 22. Amounts of cytokine and chemokine protein are measure in pg/ml (picogram per milliliter).

Ulcerative Colitis = settings: cited from earlier work
[2] = system: Caco-2 epithelial cell layer; test: Gut-On-Chip barrier function (apparent permeability, Papp) with lamina propria-derived cells; settings: for Loss of barrier function: PAM2CSK4, overnight incubation
Description: (§1) This permeability assay method for adsorption across a gut wall, i.e. caco-2 cells in a gut-on-chip, measures the rate of transport of a test compound added to the basal side of the membrane, for example, inulin-FITC, across to the apical side. […] Conversely, adding a test compound to the apical side may also be used to measure transport to the basal side.
(§2) The Gut-On-Chip modeling of inflammation was used for testing bacterial antigen effects on barrier function and cytokine production. An exemplary bacteria antigen used was PAM2CSK4. […] PAM2CSK4 refers to a synthetic diacylated lipopeptide.
(§3) A co-culture configured as described herein was incubated in a device of the present inventions as described in FIG. 7.
(§4) Cultivation of Caco-2 cells in microfluidic device: Caco-2 cell monolayers were seeded as described herein. Basal regions of cells were exposed to medium under flow. […] Experimental procedure: Cells were used for this experiment between days 7 and 9 post seeding. Donor solutions (including a 100 μg/ml Inulin-FITC) were prepared, and solutions used in this experiment were prewarmed to 37° C. Inulin-FITC was used as an indicator for the determination of the monolayer integrity. […] Inulin-FITC method: 6 mM Inulin-FITC may be added into an apical region of a monolayer; and incubated for 1 hr. A standard curve may be prepared in a separate container, e.g. a 0.5 to 50 μM; HBSS blank containing 1 to 0.5% DMS0 is placed in wells; Aliquots of 200 μl are transferred from the separate container to a solid black plate; Aliquots of 50 μl are transferred from the device to a solid black plate containing 50 μl HBSS with 1-0.5% DMSO; Plates may be read in a fluorescent reader (Excitation/Emission wavelength 480/530 nm); LY rejection (Pc) values are calculated. V. Molecule transport assay: Transport of a molecule across the monolayer may also be determined; a test compound may be added at the apical region of the monolayer then removed from the apical and/or basal media then analyzed using LC-MS method for loss (e.g. apical region) or gain (e.g. basal region).
(§5) Microfluidic co-cultures with HUVEC cells in the bottom chamber, LPDCs from human non-inflamed regions of UC tissue biopsies, LPDCs from UC inflamed tissue biopsies, and samples with no LPDCs, were overlaid with Caco-2 epithelial cell layers.

[3] = system: resident immune cells from healthy and UC patient LP tissue; test: Secreted cytokine production of resident immune cells cultured on plates, 24 hour bacterial challenge; format: cell-based, human; settings: immune cells from inflamed UC tissue
[4] = system: Intestine On-Chip with TH1 or TH9 populations; test: Intestine On-Chip seeded with plate-differentiated TH1 or TH9 cells, soluble reagents: cytokine production and gene expression; format: cell-based, human; settings: for IL-10 secretion: TH9 populations
Description: Experiments were designed to evaluate whether anti-CD3 and anti-CD28 co-stimulatory activation (soluble reagents) on chip would stimulate on chip T cells (previously activated and differentiated on plates) to continue functioning as activated effector cells within the chip tissue microenvironment. Further, TH1 and TH9 T cell populations underwent testing for an exacerbated response (either tissue alterations or changes in the characteristics of the T cell population) to a specific antigen stimulation, e.g. PAM2CSK4 (TLR2) bacterial agonist, with or without additional co-stimulation (i.e. using soluble reagents). Stimulation on-chip was done as a treatment on Day 7 of culture.
In this example, a TH1 cell population was produced from a population of mature/naive CD4+ T cells, as described in Example 7. This population of CD4+ T cells were co-stimulated with adhered CD3 and soluble CD28 antibodies, without added cytokines, for inducing differentiation of TH1 cells on plates. Unlike co-stimulation with adhered CD3 and soluble CD28 antibodies in the presence of TGFB IL-4, and IFNg cytokines which induced differentiation of TH9 cells, as described herein. Thus, in this example, purified CD4+ T cell populations were plated into tissue culture plates for activation and differentiation into one selected T cell subtype, e.g. TH1 in one plate, and TH9 in another plate.
In order to further test whether PBMCs activated and differentiated with soluble factors were capable of inducing inflammation on chips, pro-inflammatory cytokine production was compared between untreated, PAM2CSK4 treated with and without Tofacitinib. […]
Evaluation of the effects of T-cell activation on the Intestine On-Chip by perfusion of soluble immune activating factors (anti-CD3 and anti-CD2) to the media is shown in FIGS. 36A-B-39A-C. In particular, activated T-cell subsets were evaluated for disease-specific cytokine production.

[5] = system: microfluidic co-cultures of Caco-2 epithelial cells, HUVECs and LPDCs; test: Gut-On-Chip cytokine and chemokine production in co-cultures with lamina propria-derived cells; format: cell-based, human; remark: listed apart in the source
[6] = system: Caco-2 epithelial cell layer
Description: as §1, §2, §3, §4, §5

[7] = system: TH1 and TH9 CD4+ T cell populations; test: On-plate bacterial antigen stimulation of differentiated CD4+ T cell subsets (cytokines, IL-9 activation factors); format: cell-based, human
Description: In this example, a TH1 cell population was produced from a population of CD4+ T cells obtained from a sample of PBMCs. This population of CD4+ T cells were co-stimulated with soluble CD3 and CD28 antibodies without added cytokine stimulation for inducing differentiation of TH1 cells. Unlike the co-stimulation with soluble CD3 and CD28 antibodies in the presence of TGFB, IL-4, and IFNg cytokines for inducing differentiation of TH9 cells as described herein.
Thus, in this example, purified CD4+ T cell populations were plated into tissue culture plates for activation and differentiation into one selected T cell subtype, e.g. Th1 in one plate, and Th2 in another plate.
A sample of each TH cell type was exposed to PAM2CSK4, then log 2 fold changes in protein expression of either pathway molecules or IL-9 were measured and compared to duplicate samples not treated with PAM2CSK4.

[8] = Prednisone alone, non-inflamed LPDC cultures
[9] = prednisone, inflamed LPDCs, with and without PAM2CSK4
[10] = prednisone, non-inflamed and inflamed LPDCs treated with PAM2CSK4

Description for Caco-2 epithelial layer: The chips treated with PAM2CSK4 as a model bacterial antigen are considered infected chips.

- Permeability (Papp) ([2]; FIG. 17A, prednisone, at least one patient sample of non-inflamed LPDCs): some benefit in reducing permeability
- Permeability (Papp) ([2]; FIG. 17A, prednisone, at least one patient sample with inflamed UC LPDC): undesirable increase
- Permeability (Papp) ([2]; FIG. 17B, overnight, prednisone, non-inflamed UC LPDC): undesirable increase in permeability
- Permeability (Papp) ([2]; prednisone and PAM2CSK4, inflamed UC LPDC): little benefit
- Permeability (Papp) ([2]; prednisone and PAM2CSK4, non-inflamed UC LPDC): range of responses
- Permeability (Papp), trend ([2]; prednisone and bacterial antigen): trend for decreasing permeability
- Permeability (Papp), trend ([2]; prednisone, non-inflamed UC LPDC): increased permeability
- Permeability (Papp), effect on average ([2]; prednisone, non-inflamed or inflamed UC LPDC): no significant effect
Compound: C[C@]12C=CC(=O)C=C1CC[C@@H]1[C@@H]2C(=O)C[C@@]2(C)[C@H]1CC[C@]2(O)C(=O)CO [prednisone]
- PDGF-AA/BB production ([1]; Prednisone alone): did not appear to be a reduction in PDGF-AA/BB
- GM-CSF production [1, 8]: did not appear to be a reduction in GM-CSF
- MCP-1 production [1, 8]: did not appear to be a reduction in MCP-1
- IL-8 production ([1]; non-inflamed LPDC cultures, Prednisone alone or PAM2CSK4): did not appear to be a reduction in IL-8
- IL-9 production ([1]; prednisone on PAM2CSK4-increased IL-9): significantly reduced
- IL-6 production ([1]; prednisone, inflamed LPDCs, endogenous or induced by PAM2CSK4): reduce IL-6 production
- GM-CSF production [1, 9]: reduced GM-CSF production
- IL-8 production [1, 9]: trend for reducing IL-8 production
- MCP-1 production [1, 9]: reduced MCP-1 production
- IL-6 production ([1]; prednisone, non-inflamed LPDCs): does not appear to have an effect
- PDGF-AA/BB production ([1]; prednisone, non-inflamed LPDCs): trend for reducing PDGF-AA/BB production
- PDGF-AA/BB production [1, 10]: trend for reducing PDGF-AA/BB production
- RANTES production [1, 10]: trend for reducing RANTES production
- IL-9 production ([1]; prednisone, non-inflamed and inflamed UC LPDC, regardless of PAM2CSK4): reduced
- G-CSF production ([1]; prednisone, non-inflamed or inflamed LPDCs, with and without PAM2CSK4): trend for reducing G-CSF production
- Inflammatory responses (secreted cytokine production) to PAM2CSK4 treatment ([1]; prophylactic prednisone, UC patient's resident immune cells, noninflamed and inflamed tissues): suppresses the inflammatory responses
- treated patients non-responsive (Ulcerative Colitis): around 16%
- treated patients with full remission (Ulcerative Colitis): ~54%
- treated patients with partial remission (Ulcerative Colitis): ~30%
- Permeability (Papp) ([2]; FIG. 17B, overnight, prednisone, inflamed UC LPDCs): did not induce an increase in permeability
- Permeability (Papp) ([2]; overnight, prednisone, inflamed UC LPDC samples): both an increase and a decrease in permeability
- Permeability (Papp), trend ([2]; prednisone, inflamed UC LPDC): little difference from the non-inflamed LPDC sample

- Avg. Z Height of Caco-2 epithelial layer (Caco-2 epithelial layer): 84 um+/−11
- Permeability (Papp) [6]: show an increase in permeability
Compound: PAM2CSK4
- IL-6 production ([1]; 1, 2 and 4 LP mil/ml, versus co-cultures with no PAM2CSK4): induced a higher level of IL-6 production
- IL-9 production ([1]; LP leukocyte co-cultures for each source (healthy, UC non-inflamed, UC inflamed)): induce IL-9
- IL-6 production ([1]; PAM2CSK4, inflamed LPDC samples): increased IL-6 production
- IL-6 production ([1]; PAM2CSK4, non-inflamed LPDC samples): not with the non-inflamed LPDC samples
- IL-9 production ([1]; PAM2CSK4, non-inflamed and inflamed LPDC co-cultures, over endogenous levels): significantly induced IL-9 production
- Apical IL-9 cytokine secretion ([1]; apical regions, 4 LP mil/ml): not at 4 LP mil/ml
- IL-9 production ([1]; epithelial cells without LP cells): not in epithelial cells without LP cells
- IL-6 production ([1]; healthy LP leukocyte co-cultures and epithelial cells without LP): induce an IL6 response
- Response to TLR2 activation (secreted TNF alpha, IL-6, IL-8) [3]: stronger response
- Loss of barrier function ([2]; 4 LP mil/ml): Loss of barrier function is shown
- Loss of barrier function ([2]; LP 1 mil/ml or LP 2 mil/ml): not at LP 1 mil/ml or LP 2 mil/ml
- IL-10 secretion ([4]; Pam stimulated vs unstimulated): no insignificant differences
- IL-8 ([4]; antigen specific stimulation (TLR2 agonist) on activated TH1 and TH9 chips): increased
- Basal IL-9 cytokine secretion ([5]; 4 LP mil/ml, basal areas): induced a higher level of IL-9 production
- Apical IL-9 cytokine secretion ([5]; apical regions, 1 and 2 LP mil/ml): increased with PAM2CSK4 treatment
- GATA3 and SPI1 (log 2 fold change) ([7]; PAM2CSK4, TH1 populations): not GATA3 car SPI11
- IL-9 mRNA concentrations ([7]; PAM2CSK4, TH1 populations): did significantly increase
- IRF4 and IL-9 (log 2 fold change) ([7]; PAM2CSK4, TH1 populations): produce measurable IRF4 and IL-9
- IL-9 and IL-9 activation factors (log 2 fold changes) ([7]; PAM2CSK4, TH9 populations in tissue culture plate): did not significantly increase IL-9
- Cytokine protein expression post differentiation ([7]; soluble PAM2CSK4, TH1 (CD) and TH9 (UC) cells on-plates): increases in the concentration of protein signaling

Compound: Tofacitinib (citrate)
- IL-10 secretion ([4]; mixture of PAM2CSK4 and Tofacitinib vs unstimulated): induced significant amounts
